The values below come from ChEMBL document CHEMBL5576130, “Non-Covalent Inhibitors of SARS-CoV-2 Papain-Like Protease (PLpro): In Vitro and In Vivo Antiviral Activity” (J Med Chem, 2024).

Data set [1] has as its system SARS-CoV-2. In words: Antiviral activity against SARS-CoV-2 USA-WA1/2020 infected in African green monkey Vero cells assessed as reduction in viral growth at 2 to 20 uM measured after 2 days by plaque assay. In kind it is functional, organism-based. The following applies: Severe acute respiratory syndrome coronavirus 2, dose 2-20 µM, time 2.0 day.
Data set [2] relates to SARS-CoV-2. In words: Antiviral activity against SARS-CoV-2 USA-WA1/2020 infected in African green monkey Vero E6 cells […] for 1 hrs followed by viral infection and measured after 48 hrs. It is filed as functional, organism-based. The following applies: Severe acute respiratory syndrome coronavirus 2, USA-WA1/2020, Vero C1008.
In data set [3] the test system is SARS-CoV-2. In words: Antiviral activity against SARS CoV-2. In kind it is functional, organism-based. The note with it: Severe acute respiratory syndrome coronavirus 2.
For data set [4], the system named is SARS-CoV-2. In words: Antiviral activity against SARS-CoV-2 USA-WA1/2020 infected in African green monkey Vero cells assessed as reduction in viral growth at 10 uM measured after 2 days by plaque assay. In kind it is functional, organism-based. The following applies: Severe acute respiratory syndrome coronavirus 2, time 2.0 day.
A short description of data set [5]: Plasma protein binding in human. In kind it is ADME, cell-free.

Activity calls are given as the source filed them. The rule behind the calls is not given here.

For the molecule `Cc1ccc(OC2CNC2)cc1C(=O)N[C@H](C)c1cccc(-c2ccc(CN3CCCC3)s2)c1`, in the data set with SARS-CoV-2 [1], the result was Active.

Consider `Cc1ccc(NC2CNC2)cc1C(=O)N[C@H](C)c1cccc(-c2ccc(CN3CCCC3)s2)c1`, for which the outcome in the data set with SARS-CoV-2 [1] was Active.

Broadly, the EC50 is the concentration giving half of the maximal effect. In the case of `COC(=O)/C=C/C(=O)NNC(=O)CCc1ccccc1C(=O)N[C@H](C)c1cccc2ccccc12`, the EC50 with SARS-CoV-2 [2] is 0.26 µM.

On to `Cc1ccc(NC2CNC2)cc1C(=O)N[C@H](C)c1cccc(-c2ccc(CNC(=O)C3CCCC3)s2)c1`, for which the result with SARS-CoV-2 [1] was inactive.

With `Nc1ccc2cc3ccc(N)cc3nc2c1` [PROFLAVINE], in the data set with SARS-CoV-2 [3], a half-maximal response (EC50) required 64 µM.

`Cc1ccc(NC2CNC2)cc1C(=O)N[C@H](C)c1cccc(-c2ccc(CN[C@H]3CC[C@@H](O)C3)s2)c1` (single isomer, unassigned): the result with SARS-CoV-2 [4] was inactive.

In data set [5], `CC(=O)N1CCN(c2ccc(OCC3COC(Cn4ccnc4)(c4ccc(Cl)cc4Cl)O3)cc2)CC1` (stereo not drawn) [KETOCONAZOLE] displayed a PPB of 99.3%.

As for `Cc1ccc(OCCN)cc1C(=O)N[C@H](C)c1cccc(-c2ccc(CN3CCCC3)s2)c1`, in the data set with SARS-CoV-2 [1], the outcome was inactive.
